Experiments:
Experiment in all cases: post-emergence herbicidal activity, greenhouse
Type in all cases: in vivo
Barnyardgrass = test system: Barnyardgrass
Summary of the method: (§1)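 Plants grown from seed or perennial propagules in greenhouse soil pans were sprayed at two to three weeks with compound solution or suspension containing about 0.4% emulsifier, at the stated application rates. Injury relative to untreated controls was scored at approximately two and four weeks after treatment on a post-emergence activity index.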

Canada Thistle = details: Table I, 4 WAT
Summary of the method: as §1

Cocklebur = test system: Cocklebur
Summary of the method: as §1

Crabgrass = details: Table II
Summary of the method: as §1

Downy Brome = test system: Downy Brome
Summary of the method: as §1

Hemp Sesbania = details: Table II
Summary of the method: as §1

Johnsongrass = details: Table I, 4 WAT
Summary of the method: as §1

Lambsquarters = test system: Lambsquarters
Summary of the method: as §1

Morningglory = test system: Morningglory
Summary of the method: as §1

Panicum Spp = details: Table II
Summary of the method: as §1

Quackgrass = details: Table I, 4 WAT
Summary of the method: as §1

Rice = details: Table II
Summary of the method: as §1

Smartweed = details: Table I, 4 WAT
Summary of the method: as §1

Sorghum = details: Table II
Summary of the method: as §1

Soybean = details: Table II
Summary of the method: as §1

Sugar Beet = details: Table II
Summary of the method: as §1

Velvetleaf = test system: Velvetleaf
Summary of the method: as §1

Wheat = details: Table II
Summary of the method: as §1

Wild Buckwheat = details: Table II
Summary of the method: as §1

Yellow Nutsedge = details: Table I, 4 WAT
Summary of the method: as §1

Structure (SMILES): CC(C)SSN(CC#N)CP(=O)(Oc1ccccc1)Oc1ccccc1 [VI, Phosphonic acid, [[(cyanomethyl)[(1-methylethyl)-dithio]amino]methyl]-, diphenyl ester]
- post-emergence herbicidal activity index (Barnyardgrass; Table I, 4 WAT, 5.6 kg/h): 2 (50-74% control)
- post-emergence herbicidal activity index (Barnyardgrass; Table I, 4 WAT, 11.2 kg/h): 2 (50-74% control)
- post-emergence herbicidal activity index (Barnyardgrass; Table II, 2 WAT, 1.12 kg/h): 1 (25-49% control)
- post-emergence herbicidal activity index (Barnyardgrass; Table II, 2 WAT, 5.6 kg/h): 2 (50-74% control)
- post-emergence herbicidal activity index (Barnyardgrass; Table II, 4 WAT, 0.28 kg/h): 0 (0-24% control)
- post-emergence herbicidal activity index (Barnyardgrass; Table II, 4 WAT, 1.12 kg/h): 0 (0-24% control)
- post-emergence herbicidal activity index (Barnyardgrass; Table II, 4 WAT, 5.6 kg/h): 3 (75-99% control)
- post-emergence herbicidal activity index (Canada Thistle; 5.6 kg/h): 2 (50-74% control)
- post-emergence herbicidal activity index (Canada Thistle; 11.2 kg/h): 2 (50-74% control)
- post-emergence herbicidal activity index (Cocklebur; Table I, 4 WAT, 5.6 kg/h): 2 (50-74% control)
- post-emergence herbicidal activity index (Cocklebur; Table I, 4 WAT, 11.2 kg/h): 2 (50-74% control)
- post-emergence herbicidal activity index (Cocklebur; Table II, 2 WAT, 1.12 kg/h): 1 (25-49% control)
- post-emergence herbicidal activity index (Cocklebur; Table II, 2 WAT, 5.6 kg/h): 2 (50-74% control)
- post-emergence herbicidal activity index (Cocklebur; Table II, 4 WAT, 0.28 kg/h): 0 (0-24% control)
- post-emergence herbicidal activity index (Cocklebur; Table II, 4 WAT, 1.12 kg/h): 1 (25-49% control)
- post-emergence herbicidal activity index (Cocklebur; Table II, 4 WAT, 5.6 kg/h): 3 (75-99% control)
- post-emergence herbicidal activity index (Crabgrass; 2 WAT, 1.12 kg/h): 1 (25-49% control)
- post-emergence herbicidal activity index (Crabgrass; 2 WAT, 5.6 kg/h): 3 (75-99% control)
- post-emergence herbicidal activity index (Crabgrass; 4 WAT, 0.28 kg/h): 1 (25-49% control)
- post-emergence herbicidal activity index (Crabgrass; 4 WAT, 1.12 kg/h): 1 (25-49% control)
- post-emergence herbicidal activity index (Crabgrass; 4 WAT, 5.6 kg/h): 3 (75-99% control)
- post-emergence herbicidal activity index (Downy Brome; Table I, 4 WAT, 5.6 kg/h): 2 (50-74% control)
- post-emergence herbicidal activity index (Downy Brome; Table I, 4 WAT, 11.2 kg/h): 3 (75-99% control)
- post-emergence herbicidal activity index (Downy Brome; Table II, 2 WAT, 1.12 kg/h): 0 (0-24% control)
- post-emergence herbicidal activity index (Downy Brome; Table II, 2 WAT, 5.6 kg/h): 2 (50-74% control)
- post-emergence herbicidal activity index (Downy Brome; Table II, 4 WAT, 0.28 kg/h): 0 (0-24% control)
- post-emergence herbicidal activity index (Downy Brome; Table II, 4 WAT, 1.12 kg/h): 0 (0-24% control)
- post-emergence herbicidal activity index (Downy Brome; Table II, 4 WAT, 5.6 kg/h): 2 (50-74% control)
- post-emergence herbicidal activity index (Hemp Sesbania; 2 WAT, 1.12 kg/h): 0 (0-24% control)
- post-emergence herbicidal activity index (Hemp Sesbania; 2 WAT, 5.6 kg/h): 1 (25-49% control)
- post-emergence herbicidal activity index (Hemp Sesbania; 4 WAT, 0.28 kg/h): 0 (0-24% control)
- post-emergence herbicidal activity index (Hemp Sesbania; 4 WAT, 1.12 kg/h): 0 (0-24% control)
- post-emergence herbicidal activity index (Hemp Sesbania; 4 WAT, 5.6 kg/h): 1 (25-49% control)
- post-emergence herbicidal activity index (Johnsongrass; 5.6 kg/h): 3 (75-99% control)
- post-emergence herbicidal activity index (Johnsongrass; 11.2 kg/h): 3 (75-99% control)
- post-emergence herbicidal activity index (Lambsquarters; Table I, 4 WAT, 5.6 kg/h): 3 (75-99% control)
- post-emergence herbicidal activity index (Lambsquarters; Table I, 4 WAT, 11.2 kg/h): 4 (100% control)
- post-emergence herbicidal activity index (Lambsquarters; Table II, 2 WAT, 1.12 kg/h): 3 (75-99% control)
- post-emergence herbicidal activity index (Lambsquarters; Table II, 2 WAT, 5.6 kg/h): 3 (75-99% control)
- post-emergence herbicidal activity index (Lambsquarters; Table II, 4 WAT, 0.28 kg/h): 0 (0-24% control)
- post-emergence herbicidal activity index (Lambsquarters; Table II, 4 WAT, 1.12 kg/h): 3 (75-99% control)
- post-emergence herbicidal activity index (Lambsquarters; Table II, 4 WAT, 5.6 kg/h): 3 (75-99% control)
- post-emergence herbicidal activity index (Morningglory; Table I, 4 WAT, 5.6 kg/h): 2 (50-74% control)
- post-emergence herbicidal activity index (Morningglory; Table I, 4 WAT, 11.2 kg/h): 2 (50-74% control)
- post-emergence herbicidal activity index (Morningglory; Table II, 2 WAT, 1.12 kg/h): 1 (25-49% control)
- post-emergence herbicidal activity index (Morningglory; Table II, 2 WAT, 5.6 kg/h): 1 (25-49% control)
- post-emergence herbicidal activity index (Morningglory; Table II, 4 WAT, 0.28 kg/h): 0 (0-24% control)
- post-emergence herbicidal activity index (Morningglory; Table II, 4 WAT, 1.12 kg/h): 0 (0-24% control)
- post-emergence herbicidal activity index (Morningglory; Table II, 4 WAT, 5.6 kg/h): 1 (25-49% control)
- post-emergence herbicidal activity index (Panicum Spp; 2 WAT, 1.12 kg/h): 0 (0-24% control)
- post-emergence herbicidal activity index (Panicum Spp; 2 WAT, 5.6 kg/h): 1 (25-49% control)
- post-emergence herbicidal activity index (Panicum Spp; 4 WAT, 0.28 kg/h): 0 (0-24% control)
- post-emergence herbicidal activity index (Panicum Spp; 4 WAT, 1.12 kg/h): 0 (0-24% control)
- post-emergence herbicidal activity index (Panicum Spp; 4 WAT, 5.6 kg/h): 1 (25-49% control)
- post-emergence herbicidal activity index (Quackgrass; 5.6 kg/h): 0 (0-24% control)
- post-emergence herbicidal activity index (Quackgrass; 11.2 kg/h): 1 (25-49% control)
- post-emergence herbicidal activity index (Rice; 2 WAT, 1.12 kg/h): 0 (0-24% control)
- post-emergence herbicidal activity index (Rice; 2 WAT, 5.6 kg/h): 0 (0-24% control)
- post-emergence herbicidal activity index (Rice; 4 WAT, 0.28 kg/h): 0 (0-24% control)
- post-emergence herbicidal activity index (Rice; 4 WAT, 1.12 kg/h): 0 (0-24% control)
- post-emergence herbicidal activity index (Rice; 4 WAT, 5.6 kg/h): 0 (0-24% control)
- post-emergence herbicidal activity index (Smartweed; 5.6 kg/h): 2 (50-74% control)
- post-emergence herbicidal activity index (Smartweed; 11.2 kg/h): 2 (50-74% control)
- post-emergence herbicidal activity index (Sorghum; 2 WAT, 1.12 kg/h): 1 (25-49% control)
- post-emergence herbicidal activity index (Sorghum; 2 WAT, 5.6 kg/h): 2 (50-74% control)
- post-emergence herbicidal activity index (Sorghum; 4 WAT, 0.28 kg/h): 0 (0-24% control)
- post-emergence herbicidal activity index (Sorghum; 4 WAT, 1.12 kg/h): 1 (25-49% control)
- post-emergence herbicidal activity index (Sorghum; 4 WAT, 5.6 kg/h): 3 (75-99% control)
- post-emergence herbicidal activity index (Soybean; 2 WAT, 1.12 kg/h): 0 (0-24% control)
- post-emergence herbicidal activity index (Soybean; 2 WAT, 5.6 kg/h): 1 (25-49% control)
- post-emergence herbicidal activity index (Soybean; 4 WAT, 0.28 kg/h): 0 (0-24% control)
- post-emergence herbicidal activity index (Soybean; 4 WAT, 1.12 kg/h): 0 (0-24% control)
- post-emergence herbicidal activity index (Soybean; 4 WAT, 5.6 kg/h): 1 (25-49% control)
- post-emergence herbicidal activity index (Sugar Beet; 2 WAT, 1.12 kg/h): 0 (0-24% control)
- post-emergence herbicidal activity index (Sugar Beet; 2 WAT, 5.6 kg/h): 0 (0-24% control)
- post-emergence herbicidal activity index (Sugar Beet; 4 WAT, 0.28 kg/h): 0 (0-24% control)
- post-emergence herbicidal activity index (Sugar Beet; 4 WAT, 1.12 kg/h): 0 (0-24% control)
- post-emergence herbicidal activity index (Sugar Beet; 4 WAT, 5.6 kg/h): 1 (25-49% control)
- post-emergence herbicidal activity index (Velvetleaf; Table I, 4 WAT, 5.6 kg/h): 1 (25-49% control)
- post-emergence herbicidal activity index (Velvetleaf; Table I, 4 WAT, 11.2 kg/h): 2 (50-74% control)
- post-emergence herbicidal activity index (Velvetleaf; Table II, 2 WAT, 1.12 kg/h): 0 (0-24% control)
- post-emergence herbicidal activity index (Velvetleaf; Table II, 2 WAT, 5.6 kg/h): 1 (25-49% control)
- post-emergence herbicidal activity index (Velvetleaf; Table II, 4 WAT, 0.28 kg/h): 0 (0-24% control)
- post-emergence herbicidal activity index (Velvetleaf; Table II, 4 WAT, 1.12 kg/h): 1 (25-49% control)
- post-emergence herbicidal activity index (Velvetleaf; Table II, 4 WAT, 5.6 kg/h): 2 (50-74% control)
- post-emergence herbicidal activity index (Wheat; 2 WAT, 1.12 kg/h): 1 (25-49% control)
- post-emergence herbicidal activity index (Wheat; 2 WAT, 5.6 kg/h): 1 (25-49% control)
- post-emergence herbicidal activity index (Wheat; 4 WAT, 0.28 kg/h): 0 (0-24% control)
- post-emergence herbicidal activity index (Wheat; 4 WAT, 1.12 kg/h): 0 (0-24% control)
- post-emergence herbicidal activity index (Wheat; 4 WAT, 5.6 kg/h): 1 (25-49% control)
- post-emergence herbicidal activity index (Wild Buckwheat; 2 WAT, 1.12 kg/h): 0 (0-24% control)
- post-emergence herbicidal activity index (Wild Buckwheat; 2 WAT, 5.6 kg/h): 1 (25-49% control)
- post-emergence herbicidal activity index (Wild Buckwheat; 4 WAT, 0.28 kg/h): 0 (0-24% control)
- post-emergence herbicidal activity index (Wild Buckwheat; 4 WAT, 1.12 kg/h): 0 (0-24% control)
- post-emergence herbicidal activity index (Wild Buckwheat; 4 WAT, 5.6 kg/h): 1 (25-49% control)
- post-emergence herbicidal activity index (Yellow Nutsedge; 5.6 kg/h): 0 (0-24% control)
- post-emergence herbicidal activity index (Yellow Nutsedge; 11.2 kg/h): 3 (75-99% control)
